Assay results: ChEMBL document CHEMBL1130484, “Tricyclic -lactams: Total synthesis and antibacterial activity of 5-methoxyethyl and 5-hydroxyethyl trinems” (1997)
In brackets after ≈: the same amount, converted by molar mass.

Key:
Format in all cases: functional
[1] = system: Staphylococcus aureus; assay: In vitro antibacterial activity of compound against Staphylococcus aureus 11311 MET-R
[2] = system: Haemophilus influenzae; assay: In vitro antibacterial activity of compound against Haemophilus influenzae ATCC 49247 was determined
[3] = system: Staphylococcus aureus; assay: In vitro antibacterial activity of compound against Staphylococcus aureus 663 PEN-S
[4] = system: Pseudomonas aeruginosa; assay: In vitro antibacterial activity of compound against Pseudomonas aeruginosa 2032E WT was determined
[5] = system: Pseudomonas aeruginosa; assay: In vitro antibacterial activity of compound against Pseudomonas aeruginosa 2033E PER
[6] = system: Proteus mirabilis; assay: In vitro antibacterial activity of compound against Proteus mirabilis 3558 was determined
[7] = system: Bacteroides fragilis; assay: In vitro antibacterial activity of compound against Bacteroides fragilis 2017E was determined
[8] = system: Enterobacter cloacae; assay: In vitro antibacterial activity of compound against Enterobacter cloacae 3647 was determined
[9] = system: Escherichia coli; assay: In vitro antibacterial activity of compound against Escherichia coli 1919E PM/TEM-1 was determined
[10] = system: Pseudomonas aeruginosa; assay: In vitro antibacterial activity of compound against Pseudomonas aeruginosa 1911E was determined
[11] = system: Escherichia coli; assay: In vitro antibacterial activity of compound against Escherichia coli 851E was determined
[12] = system: Clostridium perfringens; assay: In vitro antibacterial activity of compound against Clostridium perfringens 615E was determined
[13] = system: Klebsiella pneumoniae; assay: In vitro antibacterial activity of compound against Klebsiella pneumoniae 3226 was determined
[14] = system: Escherichia coli; assay: In vitro antibacterial activity of compound against Escherichia coli 1850E WT was determined
[15] = system: Escherichia coli; assay: In vitro antibacterial activity of compound against Escherichia coli 1852E PM was determined
[16] = system: Enterococcus faecalis; assay: In vitro antibacterial activity of compound against Enterococcus faecalis 850
[17] = system: Streptococcus pneumoniae; assay: In vitro antibacterial activity of compound against Streptococcus pneumoniae 3512 was determined
[18] = system: Staphylococcus aureus; assay: In vitro antibacterial activity of compound against Staphylococcus aureus 853E PEN-R

SMILES	MIC [1] [µg/mL]	MIC [2] [µg/mL]	MIC [3] [µg/mL]	MIC [4] [µg/mL]	MIC [5] [µg/mL]	MIC [6] [µg/mL]	MIC [7] [µg/mL]	MIC [8] [µg/mL]	MIC [9] [µg/mL]	MIC [10] [µg/mL]	MIC [11] [µg/mL]	MIC [12] [µg/mL]	MIC [13] [µg/mL]	MIC [14] [µg/mL]	MIC [15] [µg/mL]	MIC [16] [µg/mL]	MIC [17] [µg/mL]	MIC [18] [µg/mL]
COCC[C@H]1CC[C@H]2C(=C(C(=O)O)N3C(=O)[C@H]([C@@H](C)O)[C@@H]23)C1	> 32	4 (≈ 12.9 µM)	0.5 (≈ 1.62 µM)	> 32	16 (≈ 51.7 µM)	8 (≈ 25.9 µM)	16 (≈ 51.7 µM)	32 (≈ 103 µM)	2 (≈ 6.46 µM)	> 32	8 (≈ 25.9 µM)	2 (≈ 6.46 µM)	4 (≈ 12.9 µM)	8 (≈ 25.9 µM)	1 (≈ 3.23 µM)	8 (≈ 25.9 µM)	0.12 (≈ 0.388 µM)	1 (≈ 3.23 µM)
CO[C@H]1CC[C@H]2C(=C(C(=O)O)N3C(=O)[C@H]([C@@H](C)O)[C@@H]23)C1	> 32	4 (≈ 14.2 µM)	0.5 (≈ 1.78 µM)	> 32	16 (≈ 56.9 µM)	8 (≈ 28.4 µM)	16 (≈ 56.9 µM)	32 (≈ 114 µM)	2 (≈ 7.11 µM)	> 32	8 (≈ 28.4 µM)	2 (≈ 7.11 µM)	4 (≈ 14.2 µM)	8 (≈ 28.4 µM)	1 (≈ 3.55 µM)	8 (≈ 28.4 µM)	0.12 (≈ 0.427 µM)	1 (≈ 3.55 µM)
C[C@@H](O)[C@H]1C(=O)N2C(C(=O)O)=C3C[C@@H](CCO)CC[C@@H]3[C@H]12	> 32	1 (≈ 3.39 µM)	0.25 (≈ 0.846 µM)	> 32	4 (≈ 13.5 µM)	8 (≈ 27.1 µM)	16 (≈ 54.2 µM)	4 (≈ 13.5 µM)	2 (≈ 6.77 µM)	> 32	1 (≈ 3.39 µM)	4 (≈ 13.5 µM)	2 (≈ 6.77 µM)	2 (≈ 6.77 µM)	2 (≈ 6.77 µM)	4 (≈ 13.5 µM)	0.25 (≈ 0.846 µM)	0.5 (≈ 1.69 µM)
C[C@@H](O)[C@H]1C(=O)N2C(C(=O)O)=C(SCCNC=N)C[C@H]12 [IMIPENEM ANHYDROUS]	> 32	1 (≈ 3.34 µM)	0.06 (≈ 0.2 µM)	4 (≈ 13.4 µM)	0.2 (≈ 0.668 µM)	8 (≈ 26.7 µM)	0.2 (≈ 0.668 µM)	2 (≈ 6.68 µM)	0.5 (≈ 1.67 µM)	4 (≈ 13.4 µM)	0.5 (≈ 1.67 µM)	0.2 (≈ 0.668 µM)	0.5 (≈ 1.67 µM)	0.5 (≈ 1.67 µM)	0.5 (≈ 1.67 µM)	4 (≈ 13.4 µM)	< 0.01	0.06 (≈ 0.2 µM)
CO[C@H]1CCC[C@H]2C1=C(C(=O)[O-])N1C(=O)[C@H]([C@@H](C)O)[C@@H]21.[Na+] [SANFETRINEM SODIUM]	–	–	–	–	–	–	0.06	–	0.5	> 32	–	0.03	–	0.5	–	1	0.01	0.2
